Data set [1] in a line: Cytotoxicity screening (MTS), SAEC. Format: cell-based. The conditions noted are these: human, small airway epithelial cells (SAEC). Here is the method:
Bronchial smooth muscle cells (BSMC, Lonza CC-2576), small airway epithelial cells (SAEC, Lonza CC-2547), or HepG2 cells (ATCC HB-8065) were seeded in 96-well plates at a density of 25,000 per well. Culture of these cells throughout the protocol utilized incubation at 37 °C, 5% CO2 in a humidified atmosphere, with BSMC and SAEC cells cultured in cell-specific media (Lonza) and HepG2 cells cultured in RPMI 1640 medium containing Glutamax (Gibco) and 10% fetal bovine serum. Plates containing BSMC cells were collagen coated to assist with cell adhesion. Following an overnight settling period, media was replaced with fresh media, with, or without, compound. Compound concentrations tested were 1, 3, 10, 30, and 100 μM, in duplicate. The cells were incubated with compound for 24 h. Control (1% DMSO) and positive standards terfenadine- and salmeterol-treated groups were included for both cell lines. […] The reaction was stopped with 12.5 μL of 10% SDS, plates briefly shaken, and absorbance (490 nm) read using a Spectramax M5e plate reader (Molecular Devices). Percentages of viable cells were calculated as: (test sample Abs 490 nM-mean blank Abs 490 nm)/(mean control Abs 490 nM-mean blank Abs 490 nm) × 100.

Data set [2] concerns the target T1, secreted LasB in P. aeruginosa PAO1-infected THP-1 macrophages (Pseudomonas aeruginosa, UniProt P14756).
T1 construct: The mature LasB protein is a 33 kDa metalloprotease, which is secreted from P. aeruginosa; endogenous in cells; host or cells: P. aeruginosa PAO1 infecting human THP-1 macrophages (MOI 10:1); supernatant after 2 h
The experiment in a line: LasB activity (Sub115 hydrolysis) in supernatants of P. aeruginosa-infected THP-1 macrophages. Format: cell-based. The conditions noted are these: PAO1-infected THP-1 macrophages, 2 h, inhibitor at 4 μM. Here is the method:
Further to showing in vitro inhibition of LasB-mediated pro-IL-1β proteolysis, experiments were performed to determine the effect of compounds 12 and 16 on IL-1β activation and functionality in human macrophage cell cultures infected with P. aeruginosa PAO1, or an isogenic lasB deletion mutant thereof (ΔlasB). In these experiments, the levels of LasB activity in culture supernatants were measured via hydrolysis of the Sub115 fluorescent peptide, while the effect of LasB activity on IL-1β activation (functionality) was measured using a luciferase reporter cell line sensitive to IL-1β induction (Figure 3).
Human THP-1 macrophages were cultured by conventional methods then, pre-infection, culture media were replaced by RPMI lacking phenol red and antibiotics. Compounds VX-765 (caspase-1 inhibitor, developed by Vertex) and/or LasB inhibitors were added, immediately followed by inoculation with P. aeruginosa PAO1 or an isogenic lasB deletion mutant (ΔlasB), previously grown in Luria broth to late exponential phase (OD600 = 1.2) then washed and diluted in PBS, at a multiplicity of infection (MOI) of 10 to 1. After 2 h post-infection, 50 μL aliquots of supernatant were removed and used to quantitate both LasB activity and IL-1β functionality. To determine LasB activity, 50 μL of supernatant was added to Sub115 IL-1β peptide and hydrolysis of Sub115 was monitored spectrophotometrically with excitation at 355 nm and emission at 450 nm, as described above. Results were expressed as relative fluorescence units (RFU).
In the first variation, experimental infections were performed with P. aeruginosa PAO1 and ΔlasB bacteria incubated with varying quantities of inhibitor at final concentrations ranging from 0.5 to 8 μM. In the second, cells were treated and infected in the same manner and also treated with 5 μM VX-765 to provide a control for IL-1β activation by the inflammasome pathway.

The next data set has as its target MMP-9 (Homo sapiens, UniProt P14780). The data set is described as follows: MMP-9 selectivity assay. In kind it is biochemical. The conditions noted are these: human MMP-9. Here is the method: Selectivity of compound inhibition was evaluated against other proteases at concentrations between 0.4 and 200 μM. Activity against rabbit angiotensin-converting enzyme (ACE, Sigma) was assessed using 10 μM fluorogenic substrate Abz-Phe-Arg-Lys(Dnp)-P (Enzo Life Sciences) in 100 mM Tris-HCl pH 7, 50 mM NaCl, 10 μM Zn SO4. Activity against human matrix metalloproteases (MMP)-2 and MMP-9 was assessed in 50 mM HEPES pH 7.5, 10 mM CaCl2, 0.01% Triton X-100 using 4 μM fluorogenic substrate Mca-Pro-Leu-Gly-Leu-Dpa-Ala-Arg-NH2 (Enzo Life Sciences). Activity against MMP-1 and MMP-13 was assessed in 25 mM HEPES pH 7.5, 100 mM NaCl, 100 mM CaCl2, 0.0005% Brij using 7.5 μM fluorogenic substrate Mca-Lys-Pro-Leu-Gly-Leu-Dpa-Ala-Arg-NH2 (Sigma) for MMP-1 and 1.25 μM fluorogenic substrate Mca-Pro-Cha-Gly-Nva-His-Ala-Dpa-NH2 (Millipore) for MMP-13. Activity against human neutrophil elastase (HNE, Enzo Life Sciences) was assessed in 100 mM HEPES pH 7.5, 500 mM NaCl, 0.01% of Triton X-100 using 100 μM fluorogenic substrate MeOSuc-AAPV-AMC (Enzo Life Sciences).

For the next data set, the target named is T2, LasB Q71L (Pseudomonas aeruginosa, UniProt P14756).
T2 construct: endogenous in cells; host or cells: P. aeruginosa clinical CF isolate, culture supernatant
The data set is described as follows: LasB variant inhibition, culture supernatant: Q71L. In kind it is biochemical, P. aeruginosa. The text has this:
Compounds 12 and 16 were discovered as a result of optimizing potency against the LasB protein expressed from the wild-type (WT) reference strain P. aeruginosa PAO1. To understand the relative prevalence of the WT LasB protein versus other variants in clinical respiratory P. aeruginosa strains, the full-length lasB gene was amplified by PCR from 255 clinical isolates (obtained from CF sputum samples). […] Most changes were identified in the mature peptide, however some occurred in the propeptide domain, which could affect LasB processing (marked in italics in Table 4).
LasB inhibition assays were performed using purified LasB enzyme (1 ng/well) for compound screening or using culture supernatants (prepared as described in the ECR assay) for testing LasB variants. Hydrolysis of the fluorogenic peptide substrate 2-aminobenzoyl-Ala-Gly-Leu-Ala-4-nitrobenzylamide (Abz-AGLA-Nba; Peptide International) in 50 mM Tris-HCl (pH 7.4), supplemented with 2.5 mM CaCl2 was followed using an Envision microplate reader (PerkinElmer) at 315 nm excitation and 430 nm emission. […] IC50 values were determined from Hill plots using Dotmatics Studies ELN software. For the mechanism of inhibition studies, hydrolysis rates were measured in the presence of variable concentrations of substrate and inhibitor, and the inhibition constant (Ki) was determined using Dixon plot analysis.[31]

Chain of MMP-9 (P14780 94-707): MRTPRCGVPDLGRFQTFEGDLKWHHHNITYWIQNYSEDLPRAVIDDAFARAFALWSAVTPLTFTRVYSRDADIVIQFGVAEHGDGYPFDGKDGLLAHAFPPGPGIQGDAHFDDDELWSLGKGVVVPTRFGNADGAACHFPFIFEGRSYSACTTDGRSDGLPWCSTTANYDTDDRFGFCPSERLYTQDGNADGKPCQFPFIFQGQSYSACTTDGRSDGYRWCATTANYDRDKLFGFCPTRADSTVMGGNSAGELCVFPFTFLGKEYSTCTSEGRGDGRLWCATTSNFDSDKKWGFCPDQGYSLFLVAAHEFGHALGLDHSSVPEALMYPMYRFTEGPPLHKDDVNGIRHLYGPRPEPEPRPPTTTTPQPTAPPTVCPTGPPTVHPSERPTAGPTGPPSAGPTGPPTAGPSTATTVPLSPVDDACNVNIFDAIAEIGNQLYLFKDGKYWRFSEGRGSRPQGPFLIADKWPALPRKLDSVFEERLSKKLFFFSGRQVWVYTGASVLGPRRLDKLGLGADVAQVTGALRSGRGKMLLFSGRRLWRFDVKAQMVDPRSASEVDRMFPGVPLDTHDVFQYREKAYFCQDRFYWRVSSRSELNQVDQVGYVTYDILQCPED
T2 sequence (P14756 198-498, stated change not applied): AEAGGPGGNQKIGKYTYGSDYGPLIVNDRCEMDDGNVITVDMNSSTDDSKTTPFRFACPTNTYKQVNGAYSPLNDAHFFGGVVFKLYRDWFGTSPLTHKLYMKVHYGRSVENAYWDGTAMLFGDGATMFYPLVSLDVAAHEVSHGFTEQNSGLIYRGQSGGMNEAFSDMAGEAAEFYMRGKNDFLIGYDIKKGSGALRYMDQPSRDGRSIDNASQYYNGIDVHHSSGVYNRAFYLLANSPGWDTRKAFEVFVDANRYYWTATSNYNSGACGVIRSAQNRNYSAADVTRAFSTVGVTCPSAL
T1 sequence (P14756 198-498): as the sequence (P14756 198-498, stated change not applied) above

`COc1cc2sc(CNC(=O)C3(CC(=O)O)Cc4cc(F)c(F)cc4C3)nc2cc1OCCC[N+](C)(CCO)CCO` [Compound 16]: in data set [1], the IC50 at 24 h is over 100 µM. Further, in data set [2], the “LasB activity in culture supernatant (Sub115 hydrolysis)” value was “complete abolition of activity”. The IC50 against MMP-9 was over 200 µM; against LasB Q71L it was 177 nM.
On to `COc1cc2sc(CNC(=O)C3(CC(=O)O)Cc4ccccc4C3)nc2cc1OCCC[N+](C)(C)C` [Compound 12], for which the IC50 at 24 h in data set [1] was over 100 µM. Moreover, in data set [2], the “LasB activity in culture supernatant (Sub115 hydrolysis)” value was “complete abolition of activity”. Further, the concentration for half-maximal inhibition (IC50) at MMP-9 was over 200 µM; against LasB Q71L it was 214 nM.

By IC50 is commonly meant the concentration needed to halve the response being measured.

Source of the values: PMC9926489, “Chemical Optimization of Selective Pseudomonas aeruginosa LasB Elastase Inhibitors and Their Impact on LasB-Mediated Activation of IL-1β in Cellular and Animal Infection Models” (ACS Infectious Diseases, 2023).
